Our source for the Activity and survival values is ChEMBL document CHEMBL1154443, “In vivo studies of 5-arylethenylbenzofuroxans in acute murine models of Chagas' disease” (Eur J Med Chem, 2008).

For series [1], the system named is Trypanosoma cruzi. The series is described as follows: Antitrypanosomal activity against Trypanosoma cruzi Colombiana infected Swiss mouse assessed as prevention of liver congestion at 120 mg/kg/day, po. The series is classed as functional, organism-based.
The test system of series [2] is Trypanosoma cruzi. In words: Antitrypanosomal activity against Trypanosoma cruzi Tulahuen 2 infected Swiss mouse assessed as reduction in circulating trypomastigotes antibody level at 120 mg/kg/day, po after 60 days postinfection. Format: functional, organism-based.
The subject of series [3] is Trypanosoma cruzi. In words: Antitrypanosomal activity against Trypanosoma cruzi Colombiana infected Swiss mouse assessed as prevention of heart inflammatory infiltrates at 120 mg/kg/day, po. The series is classed as functional, organism-based.
Series [4] can be described thus: Toxicity against Trypanosoma cruzi Colombiana infected Swiss mouse assessed as mouse survival at 120 mg/kg/day, po after 25 days. The series is classed as organism-based. Set-up: route oral. To be noted: in vivo, read-out: Activity.
Series [5] deals with Trypanosoma cruzi. The series is described as follows: Antitrypanosomal activity against Trypanosoma cruzi Tulahuen 2 infected Swiss mouse assessed as prevention of liver congestion at 120 mg/kg/day, po. The series is classed as functional, organism-based.
The subject of series [6] is Trypanosoma cruzi. In words: Antitrypanosomal activity against Trypanosoma cruzi Colombiana infected Swiss mouse assessed as reduction in circulating trypomastigotes antibody level at 120 mg/kg/day, po after 44 days postinfection. The series is classed as functional, organism-based.
In series [7] the test system is Trypanosoma cruzi. In words: Antitrypanosomal activity against Trypanosoma cruzi Tulahuen 2 infected Swiss mouse assessed as prevention of muscle inflammatory infiltrates at 120 mg/kg/day, po. The conditions noted are these: Muscle tissue. Format: functional, organism-based.
The subject of series [8] is Trypanosoma cruzi. The series is described as follows: Antitrypanosomal activity against Trypanosoma cruzi Colombiana infected Swiss mouse assessed as prevention of skeletal muscle inflammatory infiltrates at 120 mg/kg/day, po. Format: functional, organism-based. The conditions noted are these: Muscle tissue.
Series [9] relates to Trypanosoma cruzi. In words: Antitrypanosomal activity against Trypanosoma cruzi Tulahuen 2 infected Swiss mouse assessed as prevention of heart inflammatory infiltrates at 120 mg/kg/day, po. Format: functional, organism-based.
The nature of series [10]: Toxicity against Trypanosoma cruzi Tulahuen 2 infected Swiss mouse assessed as mouse survival at 120 mg/kg/day, po after 25 days. Format: organism-based. Details: route oral. To be noted: in vivo, read-out: Activity.
For series [11], the system named is Trypanosoma cruzi. The series is described as follows: Antitrypanosomal activity against Trypanosoma cruzi Tulahuen 2 infected Swiss mouse assessed as reduction in circulating trypomastigotes antibody level at 120 mg/kg/day, po after 90 days postinfection. The series is classed as functional, organism-based.
Series [12] deals with Trypanosoma cruzi. The series is described as follows: Antitrypanosomal activity against Trypanosoma cruzi Uruguayan isolate infected CD1 mouse assessed as suppression of parasitemia at 60 mg/kg/day, po after 17 day postinfection. The series is classed as functional, organism-based.
Series [13] concerns Mus musculus. The series is described as follows: Toxicity against Trypanosoma cruzi infected CD1 mouse assessed as effect on heart histology at 300 mg/kg, ip. The conditions noted are these: in vivo. Set-up: dose 300 mg/kg, route intraperitoneal. The series is classed as organism-based.
In series [14] the test system is Trypanosoma cruzi. The series is described as follows: Antitrypanosomal activity against Trypanosoma cruzi Argentinian isolate infected Swiss mouse assessed as prevention of heart inflammatory infiltrates at 60 mg/kg/day, po. The series is classed as functional, organism-based.
The test system of series [15] is Mus musculus. In words: Toxicity against Trypanosoma cruzi infected CD1 mouse assessed as effect on liver histology at 450 mg/kg, po. The series is classed as organism-based. Set-up: dose 450 mg/kg, route oral. The conditions noted are these: in vivo.
Series [16] has as its system Trypanosoma cruzi. The series is described as follows: Antitrypanosomal activity against Trypanosoma cruzi Tulahuen 2 infected Swiss mouse assessed as suppression of parasitemia at 60 mg/kg/day, po. The series is classed as functional, organism-based.
For series [17], the system named is Trypanosoma cruzi. In words: Antitrypanosomal activity against Trypanosoma cruzi Argentinian isolate infected Swiss mouse assessed as suppression of parasitemia at 60 mg/kg/day, po. The series is classed as functional, organism-based.
The subject of series [18] is Trypanosoma cruzi. In words: Antitrypanosomal activity against Trypanosoma cruzi Argentinian isolate infected Swiss mouse assessed as prevention of skeletal muscle inflammatory infiltrates at 60 mg/kg/day, po. Format: functional, organism-based. To be noted: Muscle tissue.
Series [19] relates to Trypanosoma cruzi. The series is described as follows: Antitrypanosomal activity against Trypanosoma cruzi Argentinian isolate infected Swiss mouse assessed as inhibition of skeletal muscle amastigote nests at 60 mg/kg/day, po. The series is classed as functional, organism-based. To be noted: Muscle tissue.
For series [20], the system named is Trypanosoma cruzi. The series is described as follows: Antitrypanosomal activity against Trypanosoma cruzi Argentinian isolate infected Swiss mouse assessed as prevention of liver congestion at 60 mg/kg/day, po. The series is classed as functional, organism-based.
For series [21], the system named is Mus musculus. In words: Toxicity against Trypanosoma cruzi infected CD1 mouse assessed as effect on kidney histology at 300 mg/kg, ip. The series is classed as organism-based. Set-up: dose 300 mg/kg, route intraperitoneal. The conditions noted are these: in vivo.
Series [22] relates to Mus musculus. In words: Toxicity against Trypanosoma cruzi infected CD1 mouse assessed as effect on heart histology at 450 mg/kg, po. Details: dose 450 mg/kg, route oral. Format: organism-based. To be noted: in vivo.
In series [23] the test system is Mus musculus. In words: Toxicity against Trypanosoma cruzi infected CD1 mouse assessed as effect on kidney histology at 450 mg/kg, po. Format: organism-based. Details: dose 450 mg/kg, route oral. To be noted: in vivo.
In series [24] the test system is Trypanosoma cruzi. In words: Antitrypanosomal activity against Trypanosoma cruzi Colombiana infected Swiss mouse assessed as reduction in circulating trypomastigotes antibody level at 120 mg/kg/day, po after 90 days postinfection. Format: functional, organism-based.
Series [25] relates to Trypanosoma cruzi. In words: Antitrypanosomal activity against Trypanosoma cruzi Tulahuen 2 infected Swiss mouse assessed as suppression of parasitemia at 120 mg/kg/day, po. Format: functional, organism-based.
For series [26], the system named is Mus musculus. The series is described as follows: Toxicity against Trypanosoma cruzi infected CD1 mouse assessed as effect on liver histology at 300 mg/kg, ip. The series is classed as organism-based. Details: dose 300 mg/kg, route intraperitoneal. The conditions noted are these: in vivo.
Series [27] concerns Trypanosoma cruzi. In words: Antitrypanosomal activity against Trypanosoma cruzi Argentinian isolate infected Swiss mouse assessed as inhibition of heart amastigote nests at 60 mg/kg/day, po. The series is classed as functional, organism-based.
Series [28] has as its system Trypanosoma cruzi. In words: Antitrypanosomal activity against Trypanosoma cruzi Tulahuen 2 infected Swiss mouse assessed as reduction in circulating trypomastigotes antibody level at 200 mg/kg/day, po after 90 days postinfection. Format: functional, organism-based.
Series [29] concerns Trypanosoma cruzi. The series is described as follows: Antitrypanosomal activity against Trypanosoma cruzi Tulahuen 2 infected Swiss mouse assessed as prevention of liver congestion at 200 mg/kg/day, po. Format: functional, organism-based.
Series [30] concerns Trypanosoma cruzi. The series is described as follows: Antitrypanosomal activity against Trypanosoma cruzi Tulahuen 2 infected Swiss mouse assessed as prevention of muscle inflammatory infiltrates at 200 mg/kg/day, po. Format: functional, organism-based. The conditions noted are these: Muscle tissue.
Series [31] has as its system Trypanosoma cruzi. The series is described as follows: Antitrypanosomal activity against Trypanosoma cruzi Tulahuen 2 infected Swiss mouse assessed as prevention of heart inflammatory infiltrates at 200 mg/kg/day, po. Format: functional, organism-based.
The test system of series [32] is Trypanosoma cruzi. The series is described as follows: Antitrypanosomal activity against Trypanosoma cruzi Tulahuen 2 infected Swiss mouse assessed as reduction in circulating trypomastigotes antibody level at 200 mg/kg/day, po after 60 days postinfection. The series is classed as functional, organism-based.

The source made the active and inactive calls. No cut-off for these calls is given here.

With `[O-][n+]1onc2ccc(/C=C/c3ccc4c(c3)OCO4)cc21`, the result in series [1], in series [2], in series [3], in series [5], in [7] and in series [8] was Active. The outcome in series [9] and in [11] was Active. Also, the survival at 600 h in series [4] and in series [10] was 100% each time. In series [6], the outcome was inactive.
On to `[O-][n+]1onc2ccc(/C=C/c3ccccc3)cc21`, for which the result in series [1], in series [12], in [14], in [3], in [16] and in series [5] was Active. Moreover, the outcome in series [7], in series [8], in [17], in series [18], in series [19] and in series [9] was Active. In addition, the outcome in series [20], in series [24], in series [25] and in [27] was Active. The Activity entry in series [13], in [15], in series [21], in series [22], in [23] and in series [26] was “Non-toxic” throughout. Further, the survival at 600 h in series [4] and in [10] was 100% throughout. Besides, the result in [6] was inactive.
`[O-][n+]1onc2ccc(/C=C\c3ccc4c(c3)OCO4)cc21`: the outcome in series [1], in [3], in series [5], in [7], in [8] and in series [9] was Active. Moreover, in [24], the result was Active. Moreover, the survival at 600 h in [4] and in series [10] was 100% in each case. In addition, in series [6], the result was inactive.
Take `CC1CS(=O)(=O)CCN1/N=C/c1ccc([N+](=O)[O-])o1` (configuration not stated) [NIFURTIMOX]: the Activity entry is “Non-toxic” in [13]; “Toxic” in [15]; “Non-toxic” in series [21]; “Non-toxic” in series [22]; “Toxic” in series [23]; “Toxic” in series [26]. Further, the outcome in series [14], in [18], in series [19], in [20] and in series [27] was Active.
`O=C(Cn1ccnc1[N+](=O)[O-])NCc1ccccc1` [BENZNIDAZOLE]: the result in [1], in [3], in [6], in [8], in series [28] and in series [29] was Active. Besides, the result in series [30], in series [31] and in series [32] was Active. Moreover, in series [4], the survival at 600 h is 100%.
